One data set concerns the target T1, IL-4 (Homo sapiens, UniProt P05112).
T1 construct: purchased Acros Biosystems IL4-H4218; host or cells: HEK-293
T1 sequence (P05112 25-153): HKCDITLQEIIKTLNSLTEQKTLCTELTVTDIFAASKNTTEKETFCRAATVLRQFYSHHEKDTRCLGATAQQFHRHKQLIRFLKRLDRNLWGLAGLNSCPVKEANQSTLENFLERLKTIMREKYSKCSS
In words: HEK-Blue IL-4/IL-13 reporter assay, IL-4 inhibition. Format: cell-based. The protocol: HEK-Blue IL-4/IL-13 Inhibition assay. HEK-Blue IL-4/IL-13 reporter cell lines were purchased from Invivogen and cultured in DMEM with 10% Heat Inactivated Fetal Bovine Serum (FBS), 100 U/ml-100 μg/ml Pen-Strep, 10 μg/ml blasticidin, 100 μg/ml Normocin and 100 μg/ml Zeocin. Cells were tested for secreted embryonic alkaline phosphatase (SEAP) production induced by IL-4 alone prior to small molecule screening.
22.5 μl of small molecule in DMEM 4% DMSO was added to 22.5 μl of 1 ng/ml IL-4 in DMEM in a non-binding 96-well reaction plate for 30 minutes at room temperature. The reaction plate was further incubated for 30-60 min at 37° C. HEK-Blue IL-4/IL-13 reporter cell line was used between passages 11-17. […] Measurements were done in triplicate. The plate was incubated for ˜22-24 hours at 37° C./5% CO2. Quanti-Blue dye was prepared as per the manufacturer's recommendation and 160 μl was dispensed in each well of a 96-well plate (avoid edges to avoid evaporation), 40 μl of cell supernatant was added to the same plate and incubated for 3 hours at 37° C./5% CO2. Optical density was then measured at 650 nm using Molecular Devices SpectraMax M5 Microplate reader. Data was analyzed and plotted using GraphPad Prism 9.2.0.
Background: In a reporter assay the amount or activity of a reporter protein is the signal.

Data set [1] deals with IL-4 induced STAT-6 phosphorylation in Ramos B lymphocytes (type I IL-4 receptor). Put plainly: Ramos STAT-6 phosphorylation assay (western blot). The data set is classed as cell-based. As to conditions: Ramos B lymphocytes. The method, then:
Ramos cells were purchased from ATCC and maintained in RMPI-1640 with 10% heat-inactivated Fetal Bovine Serum. Cells used for assays were between passages 4 and 8. […] Undiluted cell lysates were run SDS-PAGE and transferred to Immunoblot PVDF membrane using Biorad equipment. Membranes were incubated with 1:1000 primary antibody overnight at 4° C. Membranes were then incubated with 1:50,000 dilution secondary for 1 hour at room temperature. Membranes were then exposed to Femto ECL for 5 minutes and imaged using a Bio-Rad Gel Doc. The brightness/contrast was adjusted in FIJI and the area under the curve of each lane was quantified. The phosphorylated STAT-6 to STAT-6 ratio was calculated and normalized to the amount of total STAT-6. The data was plotted and analyzed using GraphPad Prism 9.2.0.
For orientation: A western blot detects proteins with antibodies after separation by electrophoresis.

The subject of data set [2] is murine IL-4 induced STAT-6 phosphorylation in RAW 264.7 macrophages. In words: RAW 264.7 STAT-6 phosphorylation assay (western blot). The data set is classed as cell-based. The method, then:
RAW 264.7 cells were purchased from ATCC and maintained in DMEM with 10% heat-inactivated Fetal Bovine Serum. Cells used for assays were between passages 3 and 5. […] The undiluted cell lysates were run SDS-PAGE followed by transfer to Immunoblot PVDF membrane using Biorad equipment. Membranes were incubated with 1:1000 primary antibody overnight at 4° C. Membranes were then incubated with 1:50,000 dilution secondary for 1 hour at room temperature. Membranes were then exposed to Femto ECL for 5 minutes and imaged using a Bio-Rad Gel Doc. The brightness/contrast was adjusted in FIJI and the area under the curve of each lane was quantified. The phosphorylated STAT-6 to STAT-6 ratio was calculated and normalized to the amount of total STAT-6. The data was plotted and analyzed using GraphPad Prism 8.

In the next data set the test system is B16-F10 cells. In words: In vitro cytotoxicity (CellTiter-Glo). Format: cell-based. As to conditions: up to 25 μM. The method, then: CellTiter-Glo 2.0 purchased from Promega G9242) was used to measure cell viability with the Victor-3 plate reader (PerkinElmer) after 24 hours in concentrations of compound up to 25 μM. Vehicle was used as a negative control for both cytotoxicity and growth inhibition, methanol was used as a positive control for cytotoxicity, and 1% FBS was used as a positive control for growth inhibition.
A general note: ATP-based viability assays read luminescence as a measure of living cells.

A short description of data set [3]: Mouse hepatic microsome stability. The data set is classed as in vitro ADME. As to conditions: mouse hepatic microsomes.
A short description of a further data set: Mouse plasma stability. The data set is classed as in vitro ADME.
Another data set can be described thus: Human plasma stability. The data set is classed as in vitro ADME.
A short description of data set [4]: PAMPA membrane permeability. The data set is classed as in vitro ADME. Conditions: 18 hours incubation. The protocol: PVDF membranes purchased from Bioassay Systems PAMPA-096 were coated with 5 μL of 4% Phosphatidylcholine (Lecithin, MP Biomedicals 0210214780) in dodecane. […] Permeability was calculated by Pv=C×ln (1−ODA/ODE) cm/s, where ODA is the absorbance of acceptor solution minus blank, and ODE the absorbance of the equilibrium standard minus blank, and C=7.72×10^−6 using an 18-hour incubation time.

In a further data set the target is IL-13 (Homo sapiens, UniProt P35225). As to conditions: previously reported; cited from earlier work.
In data set [5] the target is IL-4 induced STAT-6 phosphorylation in THP-1 monocytes (type II IL-4 receptor). Conditions: previously reported, read-out: EC50 of inhibition of STAT-6 phosphorylation; cited from earlier work.

Entries after “also recorded” stand apart in the source; their conditions may differ.

IL-13, sequence (P35225 25-146): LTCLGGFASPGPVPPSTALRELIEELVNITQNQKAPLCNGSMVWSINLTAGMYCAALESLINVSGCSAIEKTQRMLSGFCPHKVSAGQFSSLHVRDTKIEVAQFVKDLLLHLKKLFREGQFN

For the compound `N#Cc1c(-c2ccc(O)c(O)c2)cc(-c2ccc(F)cc2)nc1N` [Nico-52, 4-(3,4-dihydroxyphenyl)-6-(4fluorophenyl)-2-imino-1,2-dihydropyridine-3-carbonitrile, reference compound], the % Inhibition (in general, the drop in the measured response relative to a control, in per cent) on IL-4 (10 μM, IL-4, HEK Blue IL-4/IL-13 reporter assay) is reported as 97.6 ± 1.57%. In addition, the inhibition (commonly how much of the control response was suppressed) at 10 µM at IL-4 (HEK-Blue, 10 μM, IL-4, HEK Blue IL-4/IL-13 reporter assay, read-out: % Inhibition) is above 97%. For the same compound, the half-maximal effective concentration (EC50) – broadly, the concentration that produces a half-maximal response – on IL-4 (dose response, IL-4 inhibition, HEK Blue IL-4/IL-13 reporter assay, read-out: EC50) was 1320 ± 380 nM; in [1] (Homo sapiens, western blot, read-out: EC50 of inhibition of STAT-6 phosphorylation) it was 1030 nM; in data set [2] (Mus musculus, RAW264.7, RAW 264.7 macrophages, murine IL-4, read-out: EC50 of reduction in pSTAT-6 levels) it was 1280 nM; in [5] it was 3100 nM. Also, the Hill coefficient (commonly a measure of the steepness of the concentration-response curve) on IL-4 (fit of dose response in HEK Blue IL-4/IL-13 reporter assay) was determined as 1.24±0.08. Moreover, the inhibition at 0.5 µM in [1] (Homo sapiens, 500 nM, read-out: percent inhibition of STAT-6 phosphorylation) is 14.6%. Moreover, in data set [1] (50 nM), the “inhibition of phosphorylation of STAT-6” value is on record as “minimum inhibition”. Moreover, in data set [2] (total STAT-6, RAW 264.7), the STAT-6 levels result is given as “not affected”. In addition, in the data set on B16-F10 cells, the “Cytotoxicity in B16-F10 cells (24 hours)” value is listed as “no toxicity; also recorded: n.s. < 25 μM”. Moreover, the “Mouse hepatic microsome stability (% remaining after 1 hour)” value in data set [3] is 86.5%. The “Mouse plasma stability (% remaining after 3 hours)” value in the data set “Mouse plasma stability” stood at 97%. Besides, the “Human plasma stability (% remaining after 3 hours)” value in the data set “Human plasma stability” is recorded as above 99%. The Papp (in general, a coefficient for how fast a substance crosses the barrier) at 18 h, 100 μM in data set [4] is 16.4 ×10⁻⁶ cm/s. The “fold higher inhibition for IL-4 activity than IL-13 activity” value at IL-13 is reported as 10 fold.
